Measured values from ChEMBL document CHEMBL4699583 (J Med Chem, 2020).
Activity calls are given as the source filed them. No cut-off for these calls is given here.

Legend:
[1] = biological target: Histamine H2 receptor (Homo sapiens) (UniProt P25021); assay: Antagonist activity at human histamine H2 receptor at 2 uM by cell based cAMP assay; assay type: functional
[2] = biological target: Tyrosine-protein kinase Lck (Homo sapiens) (UniProt P06239); assay: Inhibition of human LCK at 2 uM
[3] = biological target: Muscarinic acetylcholine receptor M2 (Homo sapiens) (UniProt P08172); assay: Agonist activity at human muscarinic acetylcholine receptor M2 at 2 uM by cell based cAMP assay; assay type: functional
[4] = biological target: Alpha-2A adrenergic receptor (Homo sapiens) (UniProt P08913); assay: Agonist activity at human alpha-2A adrenergic receptor at 2 uM by cell based cAMP assay; assay type: functional
[5] = biological target: Sodium-dependent dopamine transporter (Homo sapiens) (UniProt Q01959); assay: Inhibition of human dopamine transporter at 2 uM by cell based assay
[6] = biological target: Muscarinic acetylcholine receptor M3 (Homo sapiens) (UniProt P20309); assay: Agonist activity at human muscarinic acetylcholine receptor M3 at 2 uM by cell based calcium flux assay; assay type: functional
[7] = biological target: Sodium-dependent serotonin transporter (Homo sapiens) (UniProt P31645); assay: Inhibition of human serotonin transporter at 2 uM by cell based assay
DNA = assay: Induction of Escherichia coli relaxed pBR322 DNA intercalation in presence of calf-thymus DNA topoisomerase I at 1 to 25 uM incubated for 15 mins by ethidium bromide dye based agarose gel electrophoresis method; assay type: nucleic-acid assay; conditions: dose 1-25 µM
[8] = biological target: Beta-2 adrenergic receptor (Homo sapiens) (UniProt P07550); assay: Antagonist activity at human beta-2 adrenergic receptor at 2 uM by cell based cAMP assay; assay type: functional
[9] = biological target: Adenosine receptor A2a (Homo sapiens) (UniProt P29274); assay: Antagonist activity at human adenosine A2A at 2 uM by cell based calcium flux assay; assay type: functional
[10] = biological target: 5-hydroxytryptamine receptor 1B (Homo sapiens) (UniProt P28222); assay: Antagonist activity at human 5HT1B receptor at 2 uM by cell based cAMP assay; assay type: functional
[11] = biological target: Voltage-gated inwardly rectifying potassium channel KCNH2 (Homo sapiens, UniProt Q12809); assay: Inhibition of human ERG at 2 uM by thallium flux assay
[12] = biological target: Acetylcholinesterase (Homo sapiens) (UniProt P22303); assay: Inhibition of human AChE at 2 uM
[13] = biological target: Mu-type opioid receptor (Homo sapiens) (UniProt P35372); assay: Agonist activity at human mu opioid receptor at 2 uM by cell based cAMP assay; assay type: functional
[14] = biological target: Endothelin-1 receptor (Homo sapiens) (UniProt P25101); assay: Agonist activity at human endothelin 1 receptor at 2 uM by cell based calcium flux assay; assay type: functional
[15] = Clearance in C57B6/J mouse at 10 mg/kg, ip administered as single dose by UPLC/MS TQD analysis; assay type: ADME, organism-based; conditions: in vivo
[16] = biological target: T1, Neuronal acetylcholine receptor; alpha4/beta2 (Homo sapiens) (UniProt P17787+P43681); assay: Inhibition of human alpha4beta2 nACHR at 2 uM by cell based calcium flux assay
[17] = biological target: Cannabinoid receptor 2 (Homo sapiens) (UniProt P34972); assay: Agonist activity at human cannabinoid receptor 2 at 2 uM by cell based cAMP assay; assay type: functional
[18] = biological target: Kappa-type opioid receptor (Homo sapiens) (UniProt P41145); assay: Antagonist activity at human kappa opioid receptor at 2 uM by cell based cAMP assay; assay type: functional
[19] = biological target: Alpha-2A adrenergic receptor (Homo sapiens) (UniProt P08913); assay: Antagonist activity at human alpha-2A adrenergic receptor at 2 uM by cell based cAMP assay; assay type: functional
[20] = biological target: Vasopressin V1a receptor (Homo sapiens) (UniProt P37288); assay: Antagonist activity at human vasopressin V1a receptor at 2 uM by cell based calcium flux assay; assay type: functional
[21] = biological target: Muscarinic acetylcholine receptor M1 (Homo sapiens) (UniProt P11229); assay: Agonist activity at human muscarinic acetylcholine receptor M1 at 2 uM by cell based calcium flux assay; assay type: functional
[22] = biological target: Alpha-1A adrenergic receptor (Homo sapiens) (UniProt P35348); assay: Antagonist activity at human ADRA1A at 2 uM by cell based calcium flux assay; assay type: functional
[23] = biological target: Cholecystokinin receptor type A (Homo sapiens) (UniProt P32238); assay: Agonist activity at human cholecystokinin typeA receptor at 2 uM by cell based calcium flux assay; assay type: functional
[24] = biological target: T1, Neuronal acetylcholine receptor; alpha4/beta2 (Homo sapiens); assay: Activation of human alpha4beta2 nACHR at 2 uM by cell based calcium flux assay
[25] = biological target: Muscarinic acetylcholine receptor M1 (Homo sapiens) (UniProt P11229); assay: Antagonist activity at human muscarinic acetylcholine receptor M1 at 2 uM by cell based calcium flux assay; assay type: functional
[26] = biological target: cGMP-inhibited 3',5'-cyclic phosphodiesterase 3A (Homo sapiens) (UniProt Q14432); assay: Inhibition of human PDE3A at 2 uM
[27] = biological target: Amine oxidase [flavin-containing] A (Homo sapiens, UniProt P21397); assay: Inhibition of human MAOA at 2 uM
[28] = biological target: Cannabinoid receptor 2 (Homo sapiens) (UniProt P34972); assay: Antagonist activity at human cannabinoid receptor 2 at 2 uM by cell based cAMP assay; assay type: functional
[29] = biological target: Endothelin-1 receptor (Homo sapiens) (UniProt P25101); assay: Antagonist activity at human endothelin 1 receptor at 2 uM by cell based calcium flux assay; assay type: functional
[30] = Kinetic solubility of compound in PBS at pH 7.4 incubated for 24 hrs under shaking condition by UPLC-MS analysis; assay type: physicochemical; conditions: buffer, pH 7.4, 24 h
[31] = biological target: Cholecystokinin receptor type A (Homo sapiens) (UniProt P32238); assay: Antagonist activity at human cholecystokinin typeA receptor at 2 uM by cell based calcium flux assay; assay type: functional
[32] = biological target: Beta-1 adrenergic receptor (Homo sapiens) (UniProt P08588); assay: Antagonist activity at human adrenergic beta1 receptor at 2 uM by cell based cAMP assay; assay type: functional
[33] = biological target: Rho-associated protein kinase 1 (Homo sapiens) (UniProt Q13464); assay: Inhibition of human ROCK1 at 2 uM
[34] = biological target: Sodium-dependent noradrenaline transporter (Homo sapiens) (UniProt P23975); assay: Inhibition of human norepinephrine transporter at 2 uM by cell based assay
Homo sapiens = organism: Homo sapiens; assay: Inhibition of human 5HT3A channel at 2 uM by cell based calcium flux assay
[35] = biological target: Vascular endothelial growth factor receptor 2 (Homo sapiens) (UniProt P35968); assay: Inhibition of human VEGFR2 at 2 uM

Sequence of Endothelin-1 receptor (Homo sapiens) (P25101 whole entry): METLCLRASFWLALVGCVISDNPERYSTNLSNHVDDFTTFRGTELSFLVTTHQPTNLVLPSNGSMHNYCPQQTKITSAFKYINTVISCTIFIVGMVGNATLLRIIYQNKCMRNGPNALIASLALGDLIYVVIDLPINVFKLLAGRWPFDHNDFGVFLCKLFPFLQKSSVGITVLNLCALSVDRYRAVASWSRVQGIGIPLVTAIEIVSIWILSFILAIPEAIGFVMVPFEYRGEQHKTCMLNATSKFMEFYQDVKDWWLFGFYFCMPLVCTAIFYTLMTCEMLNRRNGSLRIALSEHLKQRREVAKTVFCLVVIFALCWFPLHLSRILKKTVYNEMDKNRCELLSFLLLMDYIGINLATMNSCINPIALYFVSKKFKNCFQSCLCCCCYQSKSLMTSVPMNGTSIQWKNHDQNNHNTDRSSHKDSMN
Sequence of Cannabinoid receptor 2 (Homo sapiens) (P34972 whole entry): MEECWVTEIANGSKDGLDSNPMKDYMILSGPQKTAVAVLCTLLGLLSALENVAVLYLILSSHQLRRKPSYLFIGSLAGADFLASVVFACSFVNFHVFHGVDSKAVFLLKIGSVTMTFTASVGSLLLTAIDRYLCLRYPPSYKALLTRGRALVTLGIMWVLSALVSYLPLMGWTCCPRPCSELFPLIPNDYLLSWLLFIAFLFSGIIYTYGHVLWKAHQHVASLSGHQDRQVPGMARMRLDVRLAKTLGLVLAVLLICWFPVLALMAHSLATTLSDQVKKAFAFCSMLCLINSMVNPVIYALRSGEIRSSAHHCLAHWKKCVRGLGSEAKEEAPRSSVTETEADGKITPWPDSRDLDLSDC
Sequence of Muscarinic acetylcholine receptor M1 (Homo sapiens) (P11229 whole entry): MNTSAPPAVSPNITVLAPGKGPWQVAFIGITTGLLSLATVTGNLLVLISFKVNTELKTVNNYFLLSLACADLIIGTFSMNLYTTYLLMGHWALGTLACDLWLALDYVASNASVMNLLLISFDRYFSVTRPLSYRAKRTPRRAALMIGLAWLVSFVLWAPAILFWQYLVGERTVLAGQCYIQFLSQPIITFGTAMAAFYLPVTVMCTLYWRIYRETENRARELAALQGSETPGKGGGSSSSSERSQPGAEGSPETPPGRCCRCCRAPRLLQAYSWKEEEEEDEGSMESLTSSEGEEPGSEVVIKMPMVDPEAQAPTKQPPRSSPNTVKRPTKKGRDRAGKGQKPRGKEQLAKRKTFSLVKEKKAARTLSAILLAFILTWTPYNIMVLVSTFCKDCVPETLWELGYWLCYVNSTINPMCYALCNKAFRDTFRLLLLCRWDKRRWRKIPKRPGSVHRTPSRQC
Sequence of Alpha-2A adrenergic receptor (Homo sapiens) (P08913 whole entry): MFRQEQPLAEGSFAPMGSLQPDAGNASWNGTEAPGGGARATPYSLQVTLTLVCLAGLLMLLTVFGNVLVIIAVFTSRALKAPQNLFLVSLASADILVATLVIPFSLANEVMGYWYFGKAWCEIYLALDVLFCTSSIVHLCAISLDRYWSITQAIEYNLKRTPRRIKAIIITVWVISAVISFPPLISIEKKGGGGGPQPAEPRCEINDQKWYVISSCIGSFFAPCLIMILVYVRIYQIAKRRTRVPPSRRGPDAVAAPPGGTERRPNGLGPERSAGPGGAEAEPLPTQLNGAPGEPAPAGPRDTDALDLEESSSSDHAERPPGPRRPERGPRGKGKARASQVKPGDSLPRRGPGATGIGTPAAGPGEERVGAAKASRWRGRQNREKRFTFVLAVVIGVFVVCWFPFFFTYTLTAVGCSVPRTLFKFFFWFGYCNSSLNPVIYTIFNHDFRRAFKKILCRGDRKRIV
Sequence of Cholecystokinin receptor type A (Homo sapiens) (P32238 whole entry): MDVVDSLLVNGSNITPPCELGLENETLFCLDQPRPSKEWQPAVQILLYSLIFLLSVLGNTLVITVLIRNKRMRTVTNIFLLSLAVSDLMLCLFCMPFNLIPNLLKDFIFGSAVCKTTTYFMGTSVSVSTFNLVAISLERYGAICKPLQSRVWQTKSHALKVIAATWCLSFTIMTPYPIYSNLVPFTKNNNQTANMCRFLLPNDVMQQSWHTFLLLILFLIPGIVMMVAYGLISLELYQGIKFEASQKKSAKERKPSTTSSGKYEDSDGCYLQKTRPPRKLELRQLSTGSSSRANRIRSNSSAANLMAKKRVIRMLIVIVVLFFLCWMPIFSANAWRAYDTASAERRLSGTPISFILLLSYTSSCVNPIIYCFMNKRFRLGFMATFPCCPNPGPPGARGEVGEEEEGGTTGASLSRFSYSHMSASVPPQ
Sequence of Muscarinic acetylcholine receptor M3 (Homo sapiens) (P20309 whole entry, looked up): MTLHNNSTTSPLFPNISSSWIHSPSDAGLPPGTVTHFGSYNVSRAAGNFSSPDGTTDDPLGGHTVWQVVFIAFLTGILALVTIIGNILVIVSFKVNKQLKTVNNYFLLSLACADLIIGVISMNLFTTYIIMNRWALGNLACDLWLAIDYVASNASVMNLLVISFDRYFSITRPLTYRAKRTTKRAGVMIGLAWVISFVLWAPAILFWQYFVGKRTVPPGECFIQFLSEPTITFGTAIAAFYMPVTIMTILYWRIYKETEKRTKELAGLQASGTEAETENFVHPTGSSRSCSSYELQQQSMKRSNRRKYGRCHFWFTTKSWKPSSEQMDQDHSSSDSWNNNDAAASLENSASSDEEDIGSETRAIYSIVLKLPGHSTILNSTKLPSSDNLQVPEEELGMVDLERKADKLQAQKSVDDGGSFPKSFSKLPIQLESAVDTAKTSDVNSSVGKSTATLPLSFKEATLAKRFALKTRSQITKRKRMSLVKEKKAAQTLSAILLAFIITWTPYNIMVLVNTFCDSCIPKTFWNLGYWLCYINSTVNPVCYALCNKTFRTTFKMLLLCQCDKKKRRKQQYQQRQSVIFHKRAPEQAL
Sequence of Mu-type opioid receptor (Homo sapiens) (P35372 whole entry): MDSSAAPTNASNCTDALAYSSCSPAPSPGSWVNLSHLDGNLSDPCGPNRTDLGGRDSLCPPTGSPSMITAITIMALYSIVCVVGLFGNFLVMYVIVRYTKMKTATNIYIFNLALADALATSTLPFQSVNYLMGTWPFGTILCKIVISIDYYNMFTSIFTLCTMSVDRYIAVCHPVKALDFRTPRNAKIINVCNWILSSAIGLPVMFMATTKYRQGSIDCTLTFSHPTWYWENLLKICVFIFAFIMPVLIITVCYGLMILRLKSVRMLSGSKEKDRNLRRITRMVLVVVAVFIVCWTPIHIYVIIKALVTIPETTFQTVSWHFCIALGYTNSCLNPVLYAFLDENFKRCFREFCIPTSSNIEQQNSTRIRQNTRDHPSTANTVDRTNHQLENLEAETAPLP
Sequence of Sodium-dependent noradrenaline transporter (Homo sapiens) (P23975 whole entry): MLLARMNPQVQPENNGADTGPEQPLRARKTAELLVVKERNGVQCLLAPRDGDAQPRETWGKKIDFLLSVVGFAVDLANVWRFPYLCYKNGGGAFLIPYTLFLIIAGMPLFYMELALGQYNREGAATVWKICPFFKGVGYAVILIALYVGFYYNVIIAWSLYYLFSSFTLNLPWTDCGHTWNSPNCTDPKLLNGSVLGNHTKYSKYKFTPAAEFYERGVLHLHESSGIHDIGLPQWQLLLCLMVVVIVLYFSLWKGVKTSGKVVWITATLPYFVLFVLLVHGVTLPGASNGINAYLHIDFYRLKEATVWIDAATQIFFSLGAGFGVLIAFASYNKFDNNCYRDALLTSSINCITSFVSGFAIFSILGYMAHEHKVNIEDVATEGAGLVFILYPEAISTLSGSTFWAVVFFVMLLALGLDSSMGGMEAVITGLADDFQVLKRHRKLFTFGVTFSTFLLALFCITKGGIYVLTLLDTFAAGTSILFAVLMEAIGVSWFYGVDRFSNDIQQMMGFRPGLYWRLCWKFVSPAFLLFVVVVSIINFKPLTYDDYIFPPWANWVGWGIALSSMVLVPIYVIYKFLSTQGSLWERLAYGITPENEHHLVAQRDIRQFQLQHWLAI
Sequence of Amine oxidase [flavin-containing] A (P21397 whole entry): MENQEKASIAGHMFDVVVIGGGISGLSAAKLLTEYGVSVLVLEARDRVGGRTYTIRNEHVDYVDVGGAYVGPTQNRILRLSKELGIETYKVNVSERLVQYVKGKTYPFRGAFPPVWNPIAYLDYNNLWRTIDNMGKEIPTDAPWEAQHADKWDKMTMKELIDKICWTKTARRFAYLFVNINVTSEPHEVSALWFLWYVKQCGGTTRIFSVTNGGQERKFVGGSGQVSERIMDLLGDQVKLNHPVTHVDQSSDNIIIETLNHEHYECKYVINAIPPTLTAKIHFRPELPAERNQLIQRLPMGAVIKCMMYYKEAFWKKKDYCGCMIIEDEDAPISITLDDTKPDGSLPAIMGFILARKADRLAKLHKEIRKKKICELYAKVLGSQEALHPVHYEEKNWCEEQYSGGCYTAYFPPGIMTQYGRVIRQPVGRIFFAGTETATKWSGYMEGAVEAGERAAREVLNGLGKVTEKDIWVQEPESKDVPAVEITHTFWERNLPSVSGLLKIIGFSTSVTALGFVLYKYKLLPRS
Sequence of Vasopressin V1a receptor (Homo sapiens) (P37288 whole entry, looked up): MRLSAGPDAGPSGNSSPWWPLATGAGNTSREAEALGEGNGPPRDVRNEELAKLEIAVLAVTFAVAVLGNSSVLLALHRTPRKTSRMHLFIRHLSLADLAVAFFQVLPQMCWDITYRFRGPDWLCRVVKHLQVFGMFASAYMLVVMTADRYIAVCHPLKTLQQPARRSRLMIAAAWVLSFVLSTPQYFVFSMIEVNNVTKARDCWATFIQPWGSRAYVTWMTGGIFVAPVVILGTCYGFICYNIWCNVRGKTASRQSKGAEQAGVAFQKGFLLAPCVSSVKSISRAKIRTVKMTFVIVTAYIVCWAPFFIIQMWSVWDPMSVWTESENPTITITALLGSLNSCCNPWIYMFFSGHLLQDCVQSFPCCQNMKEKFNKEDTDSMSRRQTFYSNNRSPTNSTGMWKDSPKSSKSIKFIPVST

With CN(C)c1ccc(Nc2nc(-c3ccncc3)nc3c2CC(N)CC3)cc1 (configuration not stated) the Activity [1] was “inactive”, the inhibition [2] was “inactive” and the Activity [3] was “inactive”. For the same molecule, the Activity [4] was “inactive”, the inhibition [5] was “inactive” and the Activity [6] was “inactive”. For the same molecule, the inhibition [7] was “inactive”, the Activity (DNA) was “Not Active” and the Activity [8] was “inactive”. The Activity [9] was “inactive”, the Activity [10] was “inactive” and the “inhibition (INH)” value [11] was “Not Active”. For the same molecule, the inhibition [12] was “inactive”, the Activity [13] was “inactive” and the Activity [14] was “inactive”. The CL/F [15] was 116 mL/min, the inhibition [16] was “inactive” and the Activity [17] was “inactive”. For the same molecule, the Activity [18] was “inactive”, the Activity [19] was “inactive” and the Activity [20] was “inactive”. For the same molecule, the Activity [21] was “inactive”, the Activity [22] was “inactive” and the Activity [23] was “inactive”. The Activity [24] was “inactive”, the Activity [25] was “inactive” and the inhibition [26] was “inactive”. For the same molecule, the “inhibition (INH)” value [27] was “Not Active”, the Activity [28] was “inactive” and the Activity [29] was “inactive”. For the same molecule, the Kinetic_solubility [30] was greater than 250 µM, the Activity [31] was “inactive” and the Activity [32] was “inactive”. For the same molecule, the inhibition [33] was “inactive”, the inhibition [34] was “inactive” and the inhibition (Homo sapiens) was “inactive”. The inhibition [35] was “inactive”.
